In the RepoRT retention time repository (doi:10.1016/j.jchromb.2020.122105):
Structures can show the parent of a compound that is named as a salt.

Legend:
Details in all cases: stereoisomer not certain
[1] = RP, Waters ACQUITY UPLC BEH C18, 100 × 2.1 mm, 1.7 µm, 0.1 mL/min, estimated dead time 2.2 min; A: water + 0.1% formic acid, pH 3; B: methanol + 0.1% formic acid, pH 3; gradient (min/%B) 0/5 5/5 25/95 25.1/100 35/100 35.1/5 45/5
[2] = RP, Waters CORTECS T3, 100 × 2.1 mm, 2.7 µm, 0.2 mL/min, estimated dead time 1.1 min; A: water + 0.1% formic acid, pH 3; B: methanol + 0.1% formic acid, pH 3; gradient (min/%B) 0/0 1/0 6/5 30/100 35/100 35.1/0 40/0
[3] = RP, Waters CORTECS T3, 100 × 2.1 mm, 2.7 µm, 0.25 mL/min, estimated dead time 0.88 min; A: water + 0.1% formic acid, pH 3; B: methanol + 0.1% formic acid, pH 3; gradient (min/%B) 0/5 5/5 25/95 25.1/100 35/100 35.1/5 45/5
[4] = RP, Waters CORTECS T3, 100 × 2.1 mm, 2.7 µm, 0.25 mL/min, estimated dead time 0.88 min; A: water + 0.1% formic acid, pH 3; B: methanol + 0.1% formic acid, pH 3; gradient (min/%B) 0/0 1/0 6/5 30/100 35/100 35.1/0 40/0
[5] = HILIC, Thermo Scientific Accucore HILIC, 100 × 2.1 mm, 2.6 µm, 0.5 mL/min, estimated dead time 0.44 min; A: water + 0.1% formic acid + 10 mM ammonium formate, pH 3; B: 5% water + 95% acetonitrile + 0.1% formic acid + 10 mM ammonium formate, pH 3; gradient (min/%B) 0/95 5/95 20/57 25/57 30/95 40/95
[6] = RP, Waters CORTECS T3, 100 × 2.1 mm, 2.7 µm, 0.15 mL/min, estimated dead time 1.5 min; A: water + 0.1% formic acid, pH 3; B: methanol + 0.1% formic acid, pH 3; gradient (min/%B) 0/5 5/5 25/95 25.1/100 35/100 35.1/5 45/5
[7] = RP, Waters CORTECS T3, 100 × 2.1 mm, 2.7 µm, 0.3 mL/min, estimated dead time 0.73 min; A: water + 0.1% formic acid, pH 3; B: methanol + 0.1% formic acid, pH 3; gradient (min/%B) 0/0 1/0 6/5 30/100 35/100 35.1/0 40/0
[8] = RP, Waters CORTECS T3, 100 × 2.1 mm, 2.7 µm, 0.15 mL/min, estimated dead time 1.5 min; A: water + 0.1% formic acid, pH 3; B: methanol + 0.1% formic acid, pH 3; gradient (min/%B) 0/0 1/0 6/5 30/100 35/100 35.1/0 40/0
[9] = RP, Waters ACQUITY UPLC BEH C18, 100 × 2.1 mm, 1.7 µm, 0.2 mL/min, estimated dead time 1.1 min; A: water + 0.1% formic acid, pH 3; B: methanol + 0.1% formic acid, pH 3; gradient (min/%B) 0/5 5/5 25/100 30/100 30.1/5 35/5
[10] = RP, Waters CORTECS T3, 100 × 2.1 mm, 2.7 µm, 0.3 mL/min, estimated dead time 0.73 min; A: water + 0.1% formic acid, pH 3; B: methanol + 0.1% formic acid, pH 3; gradient (min/%B) 0/5 5/5 25/100 30/100 30.1/5 35/5
[11] = RP, Waters CORTECS T3, 100 × 2.1 mm, 2.7 µm, 0.2 mL/min, estimated dead time 1.1 min; A: water + 0.1% formic acid, pH 3; B: methanol + 0.1% formic acid, pH 3; gradient (min/%B) 0/5 5/5 25/95 25.1/100 35/100 35.1/5 45/5
[12] = RP, Waters ACQUITY UPLC BEH C18, 100 × 2.1 mm, 1.7 µm, 0.1 mL/min, estimated dead time 2.2 min; A: water + 0.1% formic acid, pH 3; B: methanol + 0.1% formic acid, pH 3; gradient (min/%B) 0/5 5/5 25/100 30/100 30.1/5 35/5
[13] = RP, Waters CORTECS T3, 100 × 2.1 mm, 2.7 µm, 0.1 mL/min, estimated dead time 2.2 min; A: water + 0.1% formic acid, pH 3; B: methanol + 0.1% formic acid, pH 3; gradient (min/%B) 0/0 1/0 6/5 30/100 35/100 35.1/0 40/0
[14] = RP, Waters CORTECS T3, 100 × 2.1 mm, 2.7 µm, 0.3 mL/min, estimated dead time 0.73 min; A: water + 0.1% formic acid, pH 3; B: methanol + 0.1% formic acid, pH 3; gradient (min/%B) 0/5 5/5 25/95 25.1/100 35/100 35.1/5 45/5
[15] = RP, Waters CORTECS T3, 100 × 2.1 mm, 2.7 µm, 0.3 mL/min, estimated dead time 0.73 min; A: water + 0.1% formic acid, pH 3; B: methanol + 0.1% formic acid, pH 3; gradient (min/%B) 0/0 5/0 25/100 30/100 30.1/0 35/0
[16] = RP, Waters CORTECS T3, 100 × 2.1 mm, 2.7 µm, 0.1 mL/min, estimated dead time 2.2 min; A: water + 0.1% formic acid, pH 3; B: methanol + 0.1% formic acid, pH 3; gradient (min/%B) 0/5 5/5 25/95 25.1/100 35/100 35.1/5 45/5
[17] = RP, Waters CORTECS T3, 100 × 2.1 mm, 2.7 µm, 0.2 mL/min, estimated dead time 1.1 min; A: water + 0.1% formic acid, pH 3; B: methanol + 0.1% formic acid, pH 3; gradient (min/%B) 0/0 1/0 6/5 30/100 35/100 35.1/0 40/0; remark: listed apart in the source
[18] = HILIC, Merck SeQuant ZIC-HILIC, 150 × 2.1 mm, 5 µm, 0.75 mL/min, estimated dead time 0.44 min; A: water + 0.1% acetic acid + 10 mM ammonium acetate, pH 4; B: 5% water + 95% acetonitrile + 0.1% acetic acid + 10 mM ammonium acetate, pH 4; gradient (min/%B) 0/95 5/95 20/57 25/57 30/95 40/95
[19] = RP, Waters CORTECS T3, 100 × 2.1 mm, 2.7 µm, 0.3 mL/min, estimated dead time 0.73 min; A: water + 0.1% formic acid, pH 3; B: methanol + 0.1% formic acid, pH 3; gradient (min/%B) 0/0 5/0 25/100 30/100 30.1/0 35/0; remark: listed apart in the source
[20] = RP, Waters CORTECS T3, 100 × 2.1 mm, 2.7 µm, 0.3 mL/min, estimated dead time 0.73 min; A: water + 0.1% formic acid, pH 3; B: methanol + 0.1% formic acid, pH 3; gradient (min/%B) 0/0 1/0 6/5 30/100 35/100 35.1/0 40/0; remark: listed apart in the source
[21] = HILIC, Merck SeQuant ZIC-HILIC, 150 × 2.1 mm, 5 µm, 0.75 mL/min, estimated dead time 0.44 min; A: water + 10 mM ammonium formate, pH 6; B: 5% water + 95% acetonitrile + 10 mM ammonium formate, pH 6; gradient (min/%B) 0/95 5/95 20/57 25/57 30/95 40/95
[22] = RP, Waters ACQUITY UPLC BEH C18, 100 × 2.1 mm, 1.7 µm, 0.2 mL/min, estimated dead time 1.1 min; A: water + 0.025% formic acid + 20 mM ammonium acetate + 0.055% ammonium hydroxide, pH 7; B: methanol; gradient (min/%B) 0/5 5/5 25/100 30/100 30.1/5 35/5
[23] = HILIC, Waters XBridge BEH Amide, 100 × 2.1 mm, 2.5 µm, 0.5 mL/min, estimated dead time 0.44 min; A: water + 0.1% acetic acid + 10 mM ammonium acetate, pH 4; B: 5% water + 95% acetonitrile + 0.1% acetic acid + 10 mM ammonium acetate, pH 4; gradient (min/%B) 0/95 5/95 20/57 25/57 30/95 40/95

Row | Structure (SMILES) | LC retention time [1] [min] | LC retention time [3] [min] | LC retention time [5] [min] | LC retention time [6] [min] | LC retention time [9] [min] | LC retention time [11] [min] | LC retention time [17] [min] | LC retention time [18] [min] | LC retention time [19] [min] | LC retention time [20] [min] | LC retention time [21] [min] | LC retention time [22] [min] | LC retention time [23] [min] | further results
1 | N[C@@H](Cc1ccc(O)c([N+](=O)[O-])c1)C(=O)O [3-NITRO-L-TYROSINE] | 10.9 | 5.25 | 9.89 | 8.37 | 6.44 | 12.6 | 8.96 | 10.6 | 8.03 | 7.13 | 11 | – | – | LC retention time [2]: 8.81 min; LC retention time [4]: 7.83 min; LC retention time [7]: 6.9 min; LC retention time [8]: 10.4 min; LC retention time [10]: 4.34 min; LC retention time [12]: 10.8 min; LC retention time [13]: 6.31 min; LC retention time [14]: 4.27 min; LC retention time [15]: 7.98 min; LC retention time [16]: 10.8 min
2 | CC(=O)NCCCC(=O)[O-] [4-ACETAMIDOBUTANOATE] | 6.08 | 2.43 | 2.99 | 3.97 | 3.16 | 9.19 | 5.13 | 8.54 | 3.7 | 3.71 | – | 1.38 | – | –
3 | O=C(O)CCCCCC(=O)O [6-CARBOXYHEXANOATE] | 15.6 | 10.9 | 2.01 | 13.1 | 11.9 | 16.9 | 13.3 | 11.9 | 11.3 | 11.7 | 12.9 | – | – | –
4 | Nc1ccccc1S(=O)(=O)O [ANILINE-2-SULFONIC ACID] | 5.22 | 1.89 | 1.05 | 3.09 | 2.68 | 5.88 | 3.02 | – | 2.13 | 2.13 | – | 2.03 | 1.66 | –
5 | O=C(O)CCCCCCCC(=O)O [AZELAIC ACID] | 19.9 | 15.6 | 1.1 | 17.6 | 16.3 | 21.8 | 18.4 | 9.72 | 15.4 | 16.9 | 7.14 | 1.41 | – | –
6 | CSCCC(NC=O)C(=O)O [FORMYL-L-METHIONYL PEPTIDE] | 12.3 | 6.13 | 5.85 | 9.18 | 8.3 | 13.3 | 9.43 | 7.68 | 8.31 | 7.57 | – | 2.14 | – | –
7 | O=S(=O)(O)Oc1c[nH]c2ccccc12 [INDOXYL SULFATE] | 12.8 | 6.23 | 0.54 | 9.5 | 8.8 | 13.6 | 9.62 | 3.84 | 8.35 | 7.71 | – | 5.76 | 0.95 | –
8 | O=c1[nH]cnc2c1ncn2C1OC(CO)C(O)C1O (stereo not given) [INOSINE] | 2.76 | 2.9 | 4.88 | 4.68 | 3.3 | 10.8 | 6.93 | 8.42 | – | 5.37 | 8.73 | 1.41 | 7.97 | –
9 | O=C(O)CCCCCCC(=O)O [SUBERIC ACID] | 18 | 13.5 | 1.39 | 15.6 | 14.3 | 19.6 | 16.1 | – | 13.5 | 14.6 | – | – | – | –
